System: mouse ADAMTS7
Assay: TMT10 TAILS N-terminomics, HUVEC experiment (process replicates, trypsin/AspN digest)
Type: cell-based, human
Conditions: HUVEC TAILS HC; log fold change of N-terminal peptide, Ad-mADAMTS7 WT over EQ
Method in brief: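 Full-length mouse ADAMTS7 (WT or E373Q mutant, C-terminal 3xFLAG) or luciferase was transduced via adenovirus, 50 MOI, into HCA-SMC (SMC1, SMC2) or HUVEC. SMC1: pooled media, technical triplicates 400 ug; SMC2: process triplicates 300 ug; HUVEC: process triplicates 200 ug, bFGF2 10 ng/ml.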

Substance	logFC.mWT.over.mEQ
SPOCK1_27 (LAGGAGPNHGNFL; listed as Homo sapiens)	1.07
NID2_291 (HSSVPLGR; listed as Homo sapiens)	2.90
NUCB1_317 (FLASTQR; listed as Homo sapiens)	2.65
MAP4_816 (VASTGPSSR; listed as Homo sapiens)	2.05
THBS2_290 (LSENLKR; listed as Homo sapiens)	4.41
SERBP1_56 (QAAAQTNSNAAGKQLR; listed as Homo sapiens)	1.43
LTBP2_502 (LVENSVETRPPPWLPASPGHSLW; listed as Homo sapiens)	2.68
LTBP2_250 (SAAGEGTLAR; listed as Homo sapiens)	1.71
NID1_360 (FHQQHPQVI; listed as Homo sapiens)	1.78
NUCB1_389 (LQQAVLHMEQR; listed as Homo sapiens)	1.54
MAP4_815 (AVASTGPSSR; listed as Homo sapiens)	2.51
LTBP2_79 (VAGLQPVER; listed as Homo sapiens)	1.51
COL18A1_1505 (LQPPVVQLHDSNPYPR; listed as Homo sapiens)	3.88
SRGN_59 (LLPGESNKIPR; listed as Homo sapiens)	1.17
LTBP3_208 (FLVPLGPGQISA; listed as Homo sapiens)	2.14

Source: US20240368668A1, “SUBSTRATES AND BIOMARKERS OF ADAMTS7” (The Broad Institute, Inc., priority 2021, published 2024)
